Test results published in patent US20240308995A1, “O-GLYCOPROTEIN-2-ACETAMIDO-2-DEOXY-3-D-GLUCOPYRANOSIDASE INHIBITORS” (BIOGEN MA INC., priority 2018, published 2024).
Where a name gives a salt, the structure may show the parent alone.

Legend:
[1] = target: Recombinant full length human OGA enzyme (Homo sapiens (Human), UniProt O60502); experiment: OGA Enzyme Inhibition Biochemical Assay
Protocol: Recombinant full length human OGA enzyme was purchased from Origene. 4-MUGlcNAc substrate was purchased from Sigma. All other reagents were purchased from Sigma or Fisher. Assay buffer consists of the McIlvaine buffer system, pH 6.4 (0.2M Na2HPO4 mixed with 0.1M citric acid) and 0.01% BSA. […] Reactions were incubated for 90 minutes at room temperature and quenched with 40 μl of 3M glycine, pH 10 and read on a Perkin Elmer Envision plate reader (Ex: 355 nm/Em: 460 nm). Compounds were tested with a 10-point dose-response starting from 20 μM with a 4-fold dilution. Data was fit using GraphPad Prism using a 4-parameter fit with variable slope.

[2] = target: OGA (S400 O-GLCNAC), HEK-293T cells transfected with Tau-V5 (Homo sapiens (Human), UniProt O60502); experiment: Cellular OGA-Tau MSD Assay; format: cell-based
Protocol: HEK-293T cells were transfected with […] and Tau-V5 plasmids using Lipofectamine and grown overnight. Next day, the cells were collected and re-plated at 1×10^5 cells per well in 96 well plates. Cells were incubated for 4 hr at 37° C., before compounds were added at 1 uM, with 3-fold dilutions in a 10-point titration. Cell plates were incubated with compounds overnight at 37° C. The next day media was removed from wells by gentle aspiration and 120 ul of 1× Cell Lysis buffer mixed with protease and phosphatase cocktail added to each well. A freeze thaw was performed at -80° C., then mixed before transferring 50 ul to MSD plates coated with V5-tag antibody to capture Tau. MSD Plates were incubated overnight at 4° C., on a plate shaker. The following day, plates were washed and incubated with Tau-[…]-GlcNAc antibody for 2 hr and then developed with rabbit Sulfo-tag antibody. Final read out was carried out on an MSD 600 reader. The data was analyzed using Graph Pad or Genedata, the data was normalized and % activity versus log of compound concentration was plotted. The IC50 values were obtained from a 4 parameter fit.

[3] = 1 nM OGA, 100 μM 4-MUGlcNAc, pH 6.4
[4] = HEK-293T cells, Tau-S400-GlcNAc MSD readout
[5] = repeated assay, value marked with asterisk (*)

Sequence of OGA (S400 O-GLCNAC), HEK-293T cells transfected with Tau-V5 (O60502 whole entry): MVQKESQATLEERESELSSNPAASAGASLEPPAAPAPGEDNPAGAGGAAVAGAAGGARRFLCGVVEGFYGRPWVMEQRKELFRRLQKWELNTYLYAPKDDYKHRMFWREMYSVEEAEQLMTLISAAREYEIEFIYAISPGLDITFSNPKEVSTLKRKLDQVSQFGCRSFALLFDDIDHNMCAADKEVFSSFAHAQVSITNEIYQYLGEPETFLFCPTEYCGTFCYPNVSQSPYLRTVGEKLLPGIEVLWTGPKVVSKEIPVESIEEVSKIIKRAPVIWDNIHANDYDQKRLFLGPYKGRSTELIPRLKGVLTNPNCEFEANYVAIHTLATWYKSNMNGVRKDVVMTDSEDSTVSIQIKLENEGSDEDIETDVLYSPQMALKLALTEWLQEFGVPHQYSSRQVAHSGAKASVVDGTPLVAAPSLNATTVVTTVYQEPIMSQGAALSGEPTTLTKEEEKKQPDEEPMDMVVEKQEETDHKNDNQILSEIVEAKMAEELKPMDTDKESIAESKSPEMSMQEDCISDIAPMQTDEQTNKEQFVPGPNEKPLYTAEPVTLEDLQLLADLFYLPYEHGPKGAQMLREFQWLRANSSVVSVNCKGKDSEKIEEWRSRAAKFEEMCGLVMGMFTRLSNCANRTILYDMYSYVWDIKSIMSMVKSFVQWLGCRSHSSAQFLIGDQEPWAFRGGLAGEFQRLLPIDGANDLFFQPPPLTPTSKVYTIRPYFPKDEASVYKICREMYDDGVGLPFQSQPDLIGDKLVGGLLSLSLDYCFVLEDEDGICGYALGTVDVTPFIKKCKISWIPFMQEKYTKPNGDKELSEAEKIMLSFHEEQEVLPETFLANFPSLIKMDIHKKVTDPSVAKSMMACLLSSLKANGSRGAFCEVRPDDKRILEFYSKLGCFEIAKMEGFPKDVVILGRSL
Sequence of Recombinant full length human OGA enzyme (O60502 whole entry): as above

| SMILES | IC50 [1, 3] | IC50 [2, 4] | IC50 [2, 5] | IC50 [1, 5] |
| --- | --- | --- | --- | --- |
| CC(=O)Nc1ncc(CN2C[C@H](Oc3cc(OC4CCC4)ncn3)C[C@@H]2C)s1 [Example 1-121, N-(5-(((2S,4R)-4-((6-cyclobutoxypyrimidin-4-yl)oxy)-2-methylpyrrolidin-1-yl)methyl)thiazol-2-yl)acetamide] | < 1 nM | 3 nM |  |  |
| CC(=O)Nc1ncc(CN2C[C@H](Oc3cc(C(F)(F)F)ncn3)C[C@@H]2C)s1 [Example 1-79, N-(5-(((2S,4R)-2-methyl-4-((6-(trifluoromethyl)pyrimidin-4-yl)oxy)pyrrolidin-1-yl)methyl)thiazol-2-yl)acetamide] | 11 nM | 41 nM |  |  |
| COc1cc(O[C@H]2CCN(Cc3sc(NC(C)=O)nc3F)C2)ncn1 [Example 1-27, (S)—N-(4-fluoro-5-((3-((6-methoxypyrimidin-4-yl)oxy)pyrrolidin-1-yl)methyl)thiazol-2-yl)acetamide] | 850 nM |  |  |  |
| [2H][C@]1(Oc2cc(OC)ncn2)C[C@H](C)N(Cc2sc(NC(C)=O)nc2F)C1 [Example 1-166, N-(4-fluoro-5-(((2S,4S)-4-((6-methoxypyrimidin-4-yl)oxy)-2-methylpyrrolidin-1-yl-4-d)methyl)thiazol-2-yl)acetamide] | 13 nM | 11 nM |  |  |
| COc1cc(O[C@@H]2CCN(Cc3cnc(NC(C)=O)s3)C2)ncn1 [Example 1-37, (R)—N-(5-((3-((6-methoxypyrimidin-4-yl)oxy)pyrrolidin-1-yl)methyl)thiazol-2-yl)acetamide] | 36 nM | 27 nM |  |  |
| COc1ncnc(O[C@@H]2C[C@H](C)N(Cc3cnc(NC(C)=O)s3)C2)c1F [Example 1-19, N-(5-(((2S,4R)-4-((5-fluoro-6-methoxypyrimidin-4-yl)oxy)-2-methylpyrrolidin-1-yl)methyl)thiazol-2-yl)acetamide] | 1.2 nM |  | 6 nM |  |
| COc1cc(O[C@H]2CCN(Cc3cnc(NC(C)=O)s3)C2)ncn1 [Example 1-36, (S)—N-(5-((3-((6-methoxypyrimidin-4-yl)oxy)pyrrolidin-1-yl)methyl)thiazol-2-yl)acetamide] | 1700 nM |  |  |  |
| COc1cc(O[C@@H]2C[C@@H](C)N(Cc3sc(NC(C)=O)nc3F)C2)ncn1 [Example 1-29, N-(4-fluoro-5-(((2R,4R)-4-((6-methoxypyrimidin-4-yl)oxy)-2-methylpyrrolidin-1-yl)methyl)thiazol-2-yl)acetamide] | 58 nM | 97 nM |  |  |
| CC(=O)Nc1ncc(CN2C[C@H](Oc3ccc(F)cn3)CC[C@@H]2C)s1 [Example 1-4, N-(5-(((2S,5R)-5-((5-fluoropyridin-2-yl)oxy)-2-methylpiperidin-1-yl)methyl)thiazol-2-yl)acetamide] | 1.2 nM | 6 nM |  |  |
| COc1cc(O[C@H]2C[C@H](C)N(Cc3sc(NC(C)=O)nc3F)C2)ncn1 [Example 1-30, N-(4-fluoro-5-(((2S,4S)-4-((6-methoxypyrimidin-4-yl)oxy)-2-methylpyrrolidin-1-yl)methyl)thiazol-2-yl)acetamide] | 15 nM | 21 nM |  |  |
| CC(=O)Nc1ncc(CN2C[C@@H](Oc3ccc(F)cn3)CC[C@@H]2C)s1 [Example 1-5, N-(5-(((2S,5S)-5-((5-fluoropyridin-2-yl)oxy)-2-methylpiperidin-1-yl)methyl)thiazol-2-yl)acetamide] | 1.6 nM | 4 nM |  |  |
| CC(=O)Nc1ncc(CN2CC[C@H](Oc3ccc(F)cn3)C2)s1 [Example 1-7, (S)—N-(5-((3-((5-fluoropyridin-2-yl)oxy)pyrrolidin-1-yl)methyl)thiazol-2-yl)acetamide] | > 1000 nM |  |  | 2000 nM |
| CC(=O)Nc1ncc(CN2C[C@H](Oc3cc(=O)n(C)cn3)C[C@@H]2C)s1 [Example 1-70, N-(5-(((2S,4R)-2-methyl-4-((1-methyl-6-oxo-1,6-dihydropyrimidin-4-yl)oxy)pyrrolidin-1-yl)methyl)thiazol-2-yl)acetamide] |  | 5 nM |  |  |

Next, values leading:

| IC50 [1, 3] | IC50 [2, 4] | IC50 [2, 5] | IC50 [1, 5] | SMILES |
| --- | --- | --- | --- | --- |
| < 1 nM | 3 nM |  |  | CC(=O)Nc1ncc(CN2C[C@H](Oc3cc(C)nc(C)c3)CC[C@@H]2C)s1 [Example 1-67, N-(5-(((2S,5R)-5-((2,6-dimethylpyridin-4-yl)oxy)-2-methylpiperidin-1-yl)methyl)thiazol-2-yl)acetamide] |
| 1 nM | 7 nM |  |  | CC(=O)Nc1nc(F)c(CN2C[C@H](Oc3cc(OC4CN(C)C4)ncn3)C[C@@H]2C)s1 [Example 1-141, N-(4-fluoro-5-(((2S,4R)-2-methyl-4-((6-((1-methylazetidin-3-yl)oxy)pyrimidin-4-yl)oxy)pyrrolidin-1-yl)methyl)thiazol-2-yl)acetamide] |
| < 1 nM | 4 nM |  |  | CC(=O)Nc1ncc(CN2C[C@@H](Oc3cc(C)nc(C)c3)CC[C@@H]2C)s1 [Example 1-66, N-(5-(((2S,5S)-5-((2,6-dimethylpyridin-4-yl)oxy)-2-methylpiperidin-1-yl)methyl)thiazol-2-yl)acetamide] |
| < 1 nM |  |  |  | COCCOc1ccnc(O[C@@H]2C[C@H](C)N(Cc3sc(NC(C)=O)nc3F)C2)c1 [Example 1-147, N-(4-fluoro-5-(((2S,4R)-4-((4-(2-methoxyethoxy)pyridin-2-yl)oxy)-2-methylpyrrolidin-1-yl)methyl)thiazol-2-yl)acetamide] |
| < 1 nM | 1 nM |  |  | CC(=O)Nc1nc(F)c(CN2C[C@H](Oc3ccc(F)nn3)C[C@@H]2C)s1 [Example 1-111, N-(4-fluoro-5-(((2S,4R)-4-((6-fluoropyridazin-3-yl)oxy)-2-methylpyrrolidin-1-yl)methyl)thiazol-2-yl)acetamide] |
| < 1 nM | 1 nM |  |  | [2H]C(c1sc(NC(C)=O)nc1F)N1C[C@H](Oc2cc(OC)ncn2)C[C@@H]1C (single isomer, unassigned) [Example 1-159] |
| < 1 nM | 4 nM |  |  | [2H]C([2H])(c1sc(NC(C)=O)nc1F)N1C[C@H](Oc2cc(OC)ncn2)C[C@@H]1C (single isomer, unassigned) [Example 1-161] |
| < 1 nM | < 1 nM |  |  | CC(=O)Nc1nc(F)c(CN2C[C@H](Oc3cc(N4CC(F)C4)ncn3)C[C@@H]2C)s1 [Example 1-25, N-(4-fluoro-5-(((2S,4R)-4-((6-(3-fluoroazetidin-1-yl)pyrimidin-4-yl)oxy)-2-methylpyrrolidin-1-yl)methyl)thiazol-2-yl)acetamide] |
| < 1 nM | 1 nM |  |  | COc1cc(O[C@@H]2C[C@H](C)N(Cc3sc(NC(C)=O)nc3F)C2)ccn1 [Example 1-100, N-(4-fluoro-5-(((2S,4R)-4-((2-methoxypyridin-4-yl)oxy)-2-methylpyrrolidin-1-yl)methyl)thiazol-2-yl)acetamide] |
| < 1 nM |  |  |  | COCCOc1cnc(O[C@@H]2C[C@H](C)N(Cc3sc(NC(C)=O)nc3F)C2)cn1 [Example 1-144, N-(4-fluoro-5-(((2S,4R)-4-((5-(2-methoxyethoxy)pyrazin-2-yl)oxy)-2-methylpyrrolidin-1-yl)methyl)thiazol-2-yl)acetamide] |
| < 1 nM | 1 nM |  |  | COc1ccc(O[C@@H]2C[C@H](C)N(Cc3sc(NC(C)=O)nc3F)C2)nn1 [Example 1-84, N-(4-fluoro-5-(((2S,4R)-4-((6-methoxypyridazin-3-yl)oxy)-2-methylpyrrolidin-1-yl)methyl)thiazol-2-yl)acetamide] |
| < 1 nM |  |  |  | CC(=O)Nc1nc(F)c(CN2C[C@H](Oc3cc(C)c(F)cn3)C[C@@H]2C)s1 [Example 1-117, N-(4-fluoro-5-(((2S,4R)-4-((5-fluoro-4-methylpyridin-2-yl)oxy)-2-methylpyrrolidin-1-yl)methyl)thiazol-2-yl)acetamide] |
| < 1 nM |  |  |  | CC(=O)Nc1nc(F)c(CN2C[C@H](Oc3ccc(N4CCOCC4)cn3)C[C@@H]2C)s1 [Example 1-146, N-(4-fluoro-5-(((2S,4R)-2-methyl-4-((5-morpholinopyridin-2-yl)oxy)pyrrolidin-1-yl)methyl)thiazol-2-yl)acetamide] |
| < 1 nM | 2 nM |  |  | [2H]C([2H])([2H])Oc1cc(O[C@@H]2C[C@H](C)N(Cc3sc(NC(C)=O)nc3F)C2)ncn1 (single isomer, unassigned) [Example 1-155] |
| < 1 nM | 3 nM |  |  | [2H]C([2H])([2H])C(=O)Nc1nc(F)c(CN2C[C@H](Oc3cc(OC)ncn3)C[C@@H]2C)s1 (single isomer, unassigned) [Example 1-157, trifluoroacetate salt] |
| < 1 nM |  |  |  | COCCN(C)c1ccnc(O[C@@H]2C[C@H](C)N(Cc3sc(NC(C)=O)nc3F)C2)c1 [Example 1-145, N-(4-fluoro-5-(((2S,4R)-4-((4-((2-methoxyethyl) (methyl)amino)pyridin-2-yl)oxy)-2-methylpyrrolidin-1-yl)methyl)thiazol-2-yl)acetamide] |
